One assay concerns the target T1, Caspase-3 (Homo sapiens, UniProt P42574).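 Also: Dose-response selectivity test against caspase-3 for candidate inhibitors of sentrin-specific proteases (SENPs).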
T1 sequence (P42574 whole entry): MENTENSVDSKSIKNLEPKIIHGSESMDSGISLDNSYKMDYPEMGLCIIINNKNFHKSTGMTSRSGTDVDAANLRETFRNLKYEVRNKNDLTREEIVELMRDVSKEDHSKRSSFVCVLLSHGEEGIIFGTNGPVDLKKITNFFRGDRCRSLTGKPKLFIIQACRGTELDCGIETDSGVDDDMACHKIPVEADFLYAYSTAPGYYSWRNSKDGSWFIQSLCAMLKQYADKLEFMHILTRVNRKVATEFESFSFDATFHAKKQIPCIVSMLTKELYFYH
The format is functional.

Assay [1] deals with T2, Sentrin-specific protease 7 (Homo sapiens, UniProt Q9BQF6).
T2 sequence (Q9BQF6 whole entry): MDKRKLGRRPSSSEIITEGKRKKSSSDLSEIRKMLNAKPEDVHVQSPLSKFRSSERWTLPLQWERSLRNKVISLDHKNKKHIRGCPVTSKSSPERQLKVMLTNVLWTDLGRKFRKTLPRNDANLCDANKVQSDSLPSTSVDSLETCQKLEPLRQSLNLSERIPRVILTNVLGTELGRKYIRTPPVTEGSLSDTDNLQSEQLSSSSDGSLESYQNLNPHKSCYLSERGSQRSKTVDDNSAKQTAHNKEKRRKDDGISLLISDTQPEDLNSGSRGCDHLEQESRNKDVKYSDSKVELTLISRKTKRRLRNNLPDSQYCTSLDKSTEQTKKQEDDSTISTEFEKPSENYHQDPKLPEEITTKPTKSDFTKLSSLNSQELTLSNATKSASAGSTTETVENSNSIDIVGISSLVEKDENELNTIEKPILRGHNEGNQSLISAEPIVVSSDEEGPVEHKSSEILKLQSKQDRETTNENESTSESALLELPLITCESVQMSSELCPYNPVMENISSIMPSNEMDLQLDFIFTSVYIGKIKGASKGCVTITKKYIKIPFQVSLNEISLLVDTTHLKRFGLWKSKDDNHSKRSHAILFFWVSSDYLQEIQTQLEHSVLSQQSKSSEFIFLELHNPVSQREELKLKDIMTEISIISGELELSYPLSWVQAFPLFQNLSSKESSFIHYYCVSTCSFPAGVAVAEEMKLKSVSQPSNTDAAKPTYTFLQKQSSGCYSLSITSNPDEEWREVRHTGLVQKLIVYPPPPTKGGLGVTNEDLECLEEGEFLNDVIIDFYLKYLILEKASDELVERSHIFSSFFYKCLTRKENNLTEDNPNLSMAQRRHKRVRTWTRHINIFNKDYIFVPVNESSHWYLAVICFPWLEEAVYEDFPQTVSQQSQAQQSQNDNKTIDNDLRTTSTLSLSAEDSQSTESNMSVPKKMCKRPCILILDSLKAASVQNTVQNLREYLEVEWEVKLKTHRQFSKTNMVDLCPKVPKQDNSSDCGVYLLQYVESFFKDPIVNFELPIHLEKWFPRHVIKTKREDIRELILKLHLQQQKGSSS
The format is functional.

In assay [2] the target is T3, Sentrin-specific protease 8 (Homo sapiens, UniProt Q96LD8).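 Also: luminescence read-out of SENP8 inhibition, dose-response confirmation following an ultra-high-throughput screen.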
T3 sequence (Q96LD8 whole entry): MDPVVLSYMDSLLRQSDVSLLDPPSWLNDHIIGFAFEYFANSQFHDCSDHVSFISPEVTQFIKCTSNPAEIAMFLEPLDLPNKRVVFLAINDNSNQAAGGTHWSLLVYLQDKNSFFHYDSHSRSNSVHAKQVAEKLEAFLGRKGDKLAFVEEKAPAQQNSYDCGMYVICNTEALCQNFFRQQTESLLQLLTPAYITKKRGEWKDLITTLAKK
The format is functional.

For assay [3], the target named is T4, Sentrin-specific protease 6 (Homo sapiens, UniProt Q9GZR1).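 Also: Luminescence-based dose-response confirmatory assay of SENP6 inhibition, following up an ultra-high-throughput screen.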
T4 sequence (Q9GZR1 whole entry): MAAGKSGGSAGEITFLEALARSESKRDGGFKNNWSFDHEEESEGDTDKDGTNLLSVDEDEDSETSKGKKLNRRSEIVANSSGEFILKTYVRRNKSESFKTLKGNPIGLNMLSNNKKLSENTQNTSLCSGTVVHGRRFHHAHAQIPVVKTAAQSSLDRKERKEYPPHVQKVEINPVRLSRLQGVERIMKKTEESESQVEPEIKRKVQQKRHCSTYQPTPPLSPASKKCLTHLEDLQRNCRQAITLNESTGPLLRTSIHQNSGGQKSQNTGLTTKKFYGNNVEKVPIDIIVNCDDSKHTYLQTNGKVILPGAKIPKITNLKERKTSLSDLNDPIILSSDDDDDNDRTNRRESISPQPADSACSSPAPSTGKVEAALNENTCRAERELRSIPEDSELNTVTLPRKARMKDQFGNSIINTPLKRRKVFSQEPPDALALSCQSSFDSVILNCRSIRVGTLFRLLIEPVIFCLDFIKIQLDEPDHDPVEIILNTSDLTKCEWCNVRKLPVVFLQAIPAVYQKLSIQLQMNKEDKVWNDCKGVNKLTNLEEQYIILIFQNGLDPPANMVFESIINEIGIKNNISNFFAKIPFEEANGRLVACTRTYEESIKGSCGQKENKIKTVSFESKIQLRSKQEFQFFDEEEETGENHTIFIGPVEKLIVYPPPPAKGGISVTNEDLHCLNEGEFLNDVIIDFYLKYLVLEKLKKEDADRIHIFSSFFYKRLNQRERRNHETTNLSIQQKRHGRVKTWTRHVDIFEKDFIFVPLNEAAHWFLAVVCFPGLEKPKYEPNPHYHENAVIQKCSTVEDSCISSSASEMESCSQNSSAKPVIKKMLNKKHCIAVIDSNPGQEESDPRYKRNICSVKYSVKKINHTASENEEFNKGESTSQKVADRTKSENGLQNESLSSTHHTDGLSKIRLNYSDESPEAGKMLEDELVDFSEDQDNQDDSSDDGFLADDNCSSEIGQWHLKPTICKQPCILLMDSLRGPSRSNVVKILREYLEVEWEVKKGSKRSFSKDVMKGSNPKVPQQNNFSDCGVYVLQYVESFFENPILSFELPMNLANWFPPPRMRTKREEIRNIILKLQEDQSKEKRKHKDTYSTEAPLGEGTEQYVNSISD
Format: functional.

A further assay has as its system SN12K1. As to the kind of experiment: cells. Format: functional. The following applies: Homo sapiens.
A further assay concerns P388/ADR. In words: cells. To be noted: Mus musculus. The format is functional.
Assay [4] can be described thus: blockers of HIV-1 ZM109 envelope-driven cell-cell fusion – HeLa effector, CEM target cells, luciferase, cherry-pick, dose response (AID 652058).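 Also: luciferase signal from HIV-1 Env mediated cell-cell fusion of effector and target cells.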 The format is functional, cell-based.
Assay [5] in a line: viability of PTEN-deleted HCT116 cells – cell-based, HCT116 PTEN knockout, dose response (AID 1047).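 Also: HCT116 colon tumor cells with PTEN knocked out; cells exposed to compound for 60 hours before readout; potency for loss of cell viability measured by luminescence.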 The format is functional.
Assay [6] in a line: viability of HCT116 lacking mutant beta-catenin – cell-based, human colon tumor, dose response (AID 1045).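 Also: HCT116 colon tumor cells with beta catenin knocked out; cells exposed to compound for 60 hours.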 The format is functional.
Assay [7] in a line: A Cell Based Secondary Assay To Explore Cytotoxicity of Compounds that Sensitize Mycobacterium Tuberculosis to Beta-Lactam Antibiotics. Format: functional.
Assay [8] is described as follows: A549 cell cytotoxicity, dose response, cytotoxicity control, plate reader, cherry-pick, antagonist series (AID 743412). The format is functional, cell-based.
The nature of assay [9]: blockers of bursicon-stimulated LGR2 cAMP reporter – cell-based, HEK293, CRE-luciferase reporter, cherry pick, set 2, dose response (AID 743343).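 Also: transfected cells were stimulated with diluted bursicon conditioned medium after compound addition.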 The format is functional.
The nature of assay [10]: blockade of melanocortin 4 receptor signaling – cell-based, plate reader, cherry pick, counter-screen for LGR2 antagonist project, dose response (AID 743444).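 Also: transfected HEK 293 cells stimulated with alpha-MSH peptide; potency of inhibitors of the alpha-MSH evoked signal.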 The format is functional.
The nature of assay [11]: Dd2 malaria parasite growth inhibition potency – SYBR Green, dry powder samples, dose response (AID 1159566).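 Also: potency for growth inhibition with lower SYBR green DNA signal.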 Format: functional, cell-based.
A short description of assay [12]: blockers of HIV-1 envelope-mediated cell-cell fusion – cherry-pick, dose response (AID 652057). Format: functional, cell-based.
The nature of assay [13]: P. falciparum Dd2 growth inhibitors, dose response, SYBR Green, cherry-picked samples (AID 1159567). Format: functional, cell-based.
The nature of assay [14]: growth inhibition of yeast DHODH-expressing 3D7 parasites – SYBR Green, dry powder samples, dose response (AID 1159570).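 Also: parasite growth measured after 72 hours of compound exposure.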 Format: functional, cell-based.
Assay [15] in a line: HIV-1 AD8 envelope cell-cell fusion blockers – cherry-pick, dose response (AID 652062).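 Also: luciferase signal from cell-cell fusion driven by HIV-1 clade B AD8 Env; potency is for inhibitors of fusion seen as a drop in luminescence.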 Format: functional, cell-based.
Assay [16] can be described thus: growth inhibition of PfATP4-mutant resistant parasites – NITD609-resistant line, SYBR Green, dry powder, dose response (AID 1159571).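 Also: parasites synchronized at ring stage by sorbitol before testing.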 Format: functional, cell-based.
Assay [17] has as its system Streptococcus sp. 'group A'. As to the kind of experiment: Streptococcus pyogenes SK(-)GAS viability under kanamycin – luminescence, BacTiterGlo, confirmation, counter-screen for streptokinase expression inhibitor project, dose response (AID 1900). Format: functional, organism-based.
In another assay the test system is Streptococcus. In words: GAS UMAA2166 growth inhibition – luminescence, BacTiterGlo, counter-screen for streptokinase expression inhibitor project, dose response (AID 1915).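 Also: potency for reduction of bacterial viability or growth.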 The format is functional, organism-based.
The target in the next assay is T5, Streptokinase A (Streptococcus pyogenes serotype M1, UniProt P10520).
T5 sequence (P10520 whole entry): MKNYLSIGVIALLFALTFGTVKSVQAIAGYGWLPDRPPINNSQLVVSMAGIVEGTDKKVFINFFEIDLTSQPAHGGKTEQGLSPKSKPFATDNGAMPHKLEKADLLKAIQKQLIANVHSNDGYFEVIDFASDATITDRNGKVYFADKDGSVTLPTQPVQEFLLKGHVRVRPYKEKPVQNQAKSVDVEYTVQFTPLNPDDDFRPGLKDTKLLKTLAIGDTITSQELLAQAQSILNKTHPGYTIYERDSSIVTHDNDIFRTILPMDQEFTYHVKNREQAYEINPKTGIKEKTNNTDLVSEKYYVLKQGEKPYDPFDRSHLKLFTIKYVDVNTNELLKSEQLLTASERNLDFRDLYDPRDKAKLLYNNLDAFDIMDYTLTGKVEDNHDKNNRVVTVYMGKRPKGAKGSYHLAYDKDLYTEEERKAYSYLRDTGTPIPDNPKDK
In words: viability-normalized secreted streptokinase activity reduction – plasminogen activation absorbance, OD405, dose response (AID 1914).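 Also: secreted streptokinase activity via plasminogen activation per viability signal from cell pellet.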 Format: functional, Streptococcus pyogenes M1 GAS.

Assay [18] deals with Eukaryotic translation initiation factor 4E (Mus musculus, UniProt P63073). In words: blockers of eIF4G binding by eIF4E – biochemical, TR-FRET, dose response (AID 855).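 Also: potency for disrupting eIF4E binding to eIF4GI seen as loss of FRET.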 Format: functional.
Eukaryotic translation initiation factor 4E, sequence (P63073 whole entry): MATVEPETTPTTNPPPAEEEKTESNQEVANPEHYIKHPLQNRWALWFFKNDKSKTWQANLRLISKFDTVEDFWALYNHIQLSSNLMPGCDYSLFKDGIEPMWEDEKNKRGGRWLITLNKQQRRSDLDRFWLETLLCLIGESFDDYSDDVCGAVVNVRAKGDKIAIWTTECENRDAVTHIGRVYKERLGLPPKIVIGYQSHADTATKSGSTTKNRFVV
The target of a further assay is Cytochrome P450 2C19 (Homo sapiens, UniProt P33261). In words: Cytochrome panel assay with activity outcomes. Panel member name: p450-cyp2c19 Compounds with AC50 equal or less than 10 uM are considered active. The format is functional. To be noted: read-out: AC50.
Cytochrome P450 2C19, sequence (P33261 whole entry): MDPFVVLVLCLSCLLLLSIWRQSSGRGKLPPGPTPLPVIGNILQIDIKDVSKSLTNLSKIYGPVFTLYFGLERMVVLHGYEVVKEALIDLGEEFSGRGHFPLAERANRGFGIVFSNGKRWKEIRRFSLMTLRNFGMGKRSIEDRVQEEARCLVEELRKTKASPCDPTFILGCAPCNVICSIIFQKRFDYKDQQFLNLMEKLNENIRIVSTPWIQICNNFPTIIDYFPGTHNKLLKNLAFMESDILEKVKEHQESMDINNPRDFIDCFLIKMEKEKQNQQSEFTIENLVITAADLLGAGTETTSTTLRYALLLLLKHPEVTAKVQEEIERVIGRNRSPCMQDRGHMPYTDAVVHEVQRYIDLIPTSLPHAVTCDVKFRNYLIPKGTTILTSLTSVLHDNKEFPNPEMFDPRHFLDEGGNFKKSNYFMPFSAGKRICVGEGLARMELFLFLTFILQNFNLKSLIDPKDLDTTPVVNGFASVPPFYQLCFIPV

Each structure is given as a SMILES string. The source made the active and inactive calls.

With `O=C(Nc1ccc2ncccc2c1)c1cccc(Br)c1`, the IC50 at Caspase-3 is 32.1 µM (active); in assay [1], 8.67 µM (active); in assay [2], 28.7 µM (active); in [3], 29.1 µM (active).

`C=C1C(O)C2(O)OCC34C(CC5C(C)=CC(=O)C(O)C5(C)C23)OC(=O)C(OC(=O)C/C=C(\C)CCCCC)C14` (centres undefined): the figures for the 50% growth inhibitory concentration (GI50) in the assay on SN12K1 and in the assay on P388/ADR were 0.0125 µM (active) and 0.0933 µM (active), respectively.

Consider `C[C@@H]1CN([C@@H](C)CO)C(=O)c2cccc(NC(=O)c3ccc(-c4nccs4)cc3)c2O[C@H]1CN(C)CC1CC1`, for which, in assay [4], the half-maximal activity concentration (AC50) was 40.2 µM (active).

Consider `COCc1nnc(NC(=O)c2ccc(S(=O)(=O)N(C)c3ccccc3)cc2)o1`, for which the EC50 in assay [5] was 20.6 µM (active); in [6], 18.3 µM (active). Also, the CC50 in [7] is 18.6 µM (active).

As to `CC1CCCN(S(=O)(=O)c2ccc(C(=O)Nc3nnc(-c4ccncc4)o3)cc2)C1` (centres undefined), the CC50 in [7] was 12.7 µM (active).

Turning to `Cc1ccc(S(=O)(=O)N2CCCCC2)cc1NC(=O)c1ccc2c(=O)n3c(nc2c1)CCCCC3`, the AC50 in assay [8] is 26.8 µM (active); in [9], 12.8 µM (active); in assay [10] it was 12.4 µM (active).

As for `COc1ccc(S(=O)(=O)Nc2ccc3c(c2)CC(=O)N([C@H](C)CO)C[C@H](C)[C@H](CN(C)S(=O)(=O)c2ccc(C)cc2)O3)cc1`, the AC50 in assay [11] is 1.88 µM (active); in [12] it was < 0.26 µM (active); in [13] it was 1.89 µM (active); in assay [14] it was 1.89 µM (active); in [4], 0.33 µM (active); in assay [15] it was 1.01 µM (active). For the same compound, in [16], the AC50 was 1.6 µM (active).

Turning to `CN(C)c1ccc(/C=N/Nc2nc3ccccc3o2)cc1`, the IC50 on Caspase-3 is 2.05 µM (active); in [1], < 1.55 µM (active); in assay [2], 1.74 µM (active); in [3], 1.72 µM (active). Besides, the EC50 (in assay [17]; in the assay on Streptococcus; at Streptokinase A) was > 150 µM (not active) each time.

On to `Cc1ccc(OCc2nnc(-c3ccccn3)[nH]2)cc1`, for which the IC50 in [18] was > 64 µM (inactive).

`O=C(O)C(Oc1ccc2cc(-c3ccc(Cl)cc3)c(=O)oc2c1)c1ccccc1` (centres undefined): the IC50 at Caspase-3 was 38.3 µM (active); in assay [1] it was 28.7 µM (active); in assay [2] it was 31.8 µM (active); in assay [3] it was 31.3 µM (active).

`Cc1ccc(C(=O)c2cc3ccccc3o2)cc1C`: the IC50 at Caspase-3 was 11.2 µM (active); in [1], 3.18 µM (active); in [2], 10.6 µM (active); in assay [3], 6.41 µM (active).

For the compound `CCNC(=O)CCn1nc(-c2ccc(Cl)cc2)c2ccccc2c1=O`, the half-maximal cytotoxic concentration (CC50) in [7] was > 40 µM (active).

Regarding `COc1ccc(C(=O)Nc2ccccc2C(=O)NC(C(=O)NCc2ccco2)C(C)C)cc1` (centres undefined), the EC50 in assay [5] was 4.63 µM (active); in assay [6] it was 8.16 µM (active). In addition, in assay [7], the CC50 is 16.9 µM (active).

`COc1ccc([C@H]2[C@H](C(C)=O)N3N=Cc4ccccc4C3C23C(=O)OC(C)(C)OC3=O)cc1` (some centres undefined): the IC50 in assay [18] is > 64 µM (inactive).

Consider `Cc1ccc(-n2c(SCC(=O)NCc3ccco3)nc3sc4c(c3c2=O)CC(C)(C)SC4)cc1`, for which, at Cytochrome P450 2C19, the AC50 was 8.91 µM (inconclusive). Besides, in assay [7], the CC50 is > 40 µM (active).

For the origin of these results see ChEMBL document CHEMBL1201862, “PubChem BioAssay data set” (2004).
